The results in this text go back to patent US20240409531A1, “BENZOXAZINONE DERIVATIVES AS SELECTIVE CYTOTOXIC AGENTS” (Merck Sharp & Dohme LLC, priority 2021, published 2024).

This assay deals with PBMCs infected with VSV-G pseudotyped HIV virus (VSV-G/pNLGI-P2A-ΔEnv). Nature of the assay: cells. Format: cell-based. The following applies: Homo sapiens, PBMC, read-out: TACK EC50 (nM).

What is called EC50 is the concentration giving half of the maximal effect. Turning to `CC(F)(F)[C@@]1(C#CC2CC2)OC(=O)Nc2cc(Cc3ccnc(N)n3)c(F)cc21` [Example 39, (S)-7-((2-aminopyrimidin-4-yl)methyl)-4-(cyclopropylethynyl)-4-(1,1-difluoroethyl)-6-fluoro-1,4-dihydro-2H-benzo[d][1,3]oxazin-2-one], the 50% effective concentration (EC50) was 16 nM.

Turning to `O=C1Nc2cc(Cn3cnccc3=O)c(F)cc2[C@@](C#CC2CC2)(C(F)(F)F)O1` (single isomer, unassigned) [Example 2A], the EC50 was found to be 88 nM.

With `Cc1cc(=O)n(Cc2cc3c(cc2Cl)[C@@](C#CC2CC2)(C(C)(F)F)OC(=O)N3)cn1` [Example 28, (S)-6-chloro-4-(cyclopropylethynyl)-4-(1,1-difluoroethyl)-7-((4-methyl-6-oxopyrimidin-1(6H)-yl)methyl)-1,4-dihydro-2H-benzo[d][1,3]oxazin-2-one], the EC50 was 15 nM.

Turning to `CC(F)(F)[C@@]1(C#CC2CC2)OC(=O)Nc2cc(Cn3cnccc3=O)ccc21` [Example 9, (S)-4-(cyclopropylethynyl)-4-(1,1-difluoroethyl)-7-((6-oxopyrimidin-1(6H)-yl)methyl)-1,4-dihydro-2H-benzo[d][1,3]oxazin-2-one], the EC50 was 90 nM.

For the compound `Nc1cncn(Cc2cc3c(cc2F)[C@@](C#CC2CC2)(C(F)(F)F)OC(=O)N3)c1=O` (single isomer, unassigned) [Example 3A], the EC50 is 46 nM.

As to `COCc1cc(=O)n(Cc2ccc3c(c2)NC(=O)O[C@]3(C#CC2CC2)C(C)(F)F)cn1` [Example 12, (S)-4-(cyclopropylethynyl)-4-(1,1-difluoroethyl)-7-((4-(methoxymethyl)-6-oxopyrimidin-1(6H)-yl)methyl)-1,4-dihydro-2H-benzo[d][1,3]oxazin-2-one], the EC50 was found to be 68 nM.

On to `O=C1Nc2cc(Cn3cnccc3=O)c(Cl)cc2[C@@](C#CC2CC2)(C(F)(F)F)O1` [Example 15, (S)-6-chloro-4-(cyclopropylethynyl)-7-((6-oxopyrimidin-1(6H)-yl)methyl)-4-(trifluoromethyl)-1,4-dihydro-2H-benzo[d][1,3]oxazin-2-one], for which the EC50 came to 63 nM.

Consider `N#Cc1c(Cc2cc3c(cc2Cl)[C@@](C#CC2CC2)(C(F)(F)F)OC(=O)N3)ccnc1N` [Example 33, (S)-2-amino-4-((6-chloro-4-(cyclopropylethynyl)-2-oxo-4-(trifluoromethyl)-1,4-dihydro-2H-benzo[d][1,3]oxazin-7-yl)methyl)nicotinonitrile], for which the EC50 was 213 nM.

As to `Nc1nccn(Cc2cc3c(cc2Cl)[C@@](C#CC2CC2)(C(F)(F)F)OC(=O)N3)c1=O` [Example 16, (S)-7-((3-amino-2-oxopyrazin-1(2H)-yl)methyl)-6-chloro-4-(cyclopropylethynyl)-4-(trifluoromethyl)-1,4-dihydro-2H-benzo[d][1,3]oxazin-2-one], the EC50 amounted to 113 nM.

As for `CC(F)(F)[C@@]1(C#CC2CC2)OC(=O)Nc2cc(Cn3ccnc(N)c3=O)ccc21` [Example 8, (S)-7-((3-amino-2-oxopyrazin-1(2H)-yl)methyl)-4-(cyclopropylethynyl)-4-(1,1-difluoroethyl)-1,4-dihydro-2H-benzo[d][1,3]oxazin-2-one], the 50% effective concentration (EC50) was found to be 30 nM.

For the compound `CC(F)(F)[C@@]1(C#CC2CC2)OC(=O)Nc2cc(Cc3ccnc(N)c3C#N)c(F)cc21` [Example 36, (S)-2-amino-4-((4-(cyclopropylethynyl)-4-(1,1-difluoroethyl)-6-fluoro-2-oxo-1,4-dihydro-2H-benzo[d][1,3]oxazin-7-yl)methyl)nicotinonitrile], the EC50 is 18 nM.

`COCc1cc(=O)n(Cc2cc3c(cc2F)[C@@](C#CC2CC2)(C(F)(F)F)OC(=O)N3)cn1` (single isomer, unassigned) [Example 5A]: the EC50 was found to be 35 nM.

Consider `CC(F)(F)[C@@]1(C#CC2CC2)OC(=O)Nc2cc(Cn3ccnc(N)c3=O)c(F)cc21` [Example 21, (S)-7-((3-amino-2-oxopyrazin-1(2H)-yl)methyl)-4-(cyclopropylethynyl)-4-(1,1-difluoroethyl)-6-fluoro-1,4-dihydro-2H-benzo[d][1,3]oxazin-2-one], for which the EC50 is 12 nM.

On to `CC(F)(F)[C@@]1(C#CC2CC2)OC(=O)Nc2cc(Cn3cnccc3=O)c(Cl)cc21` [Example 26, (S)-6-chloro-4-(cyclopropylethynyl)-4-(1,1-difluoroethyl)-7-((6-oxopyrimidin-1(6H)-yl)methyl)-1,4-dihydro-2H-benzo[d][1,3]oxazin-2-one], for which the half-maximal effective concentration (EC50) was determined as 16 nM.

As to `COc1cc(=O)n(Cc2cc3c(cc2Cl)[C@@](C#CC2CC2)(C(F)(F)F)OC(=O)N3)cn1` [Example 14, (S)-6-chloro-4-(cyclopropylethynyl)-7-((4-methoxy-6-oxopyrimidin-1(6H)-yl)methyl)-4-(trifluoromethyl)-1,4-dihydro-2H-benzo[d][1,3]oxazin-2-one], the EC50 was 63 nM.

Take `N#Cc1c(Cc2cc3c(cc2F)[C@@](C#CC2CC2)(C(F)(F)F)OC(=O)N3)ccnc1N` (single isomer, unassigned) [Example 32A]: the EC50 came to 111 nM.

As to `COCc1cc(=O)n(Cc2cc3c(cc2Cl)[C@@](C#CC2CC2)(C(F)(F)F)OC(=O)N3)cn1` [Example 19, (S)-6-chloro-4-(cyclopropylethynyl)-7-((4-(methoxymethyl)-6-oxopyrimidin-1(6H)-yl)methyl)-4-(trifluoromethyl)-1,4-dihydro-2H-benzo[d][1,3]oxazin-2-one], the half-maximal effective concentration (EC50) stood at 128 nM.

`Cc1cc(=O)n(Cc2cc3c(cc2F)[C@@](C#CC2CC2)(C(F)(F)F)OC(=O)N3)cn1` (single isomer, unassigned) [Example 6A]: the concentration for a half-maximal effect (EC50) was 43 nM.

For `COCc1cc(=O)n(Cc2cc3c(cc2F)[C@@](C#CC2CC2)(C(C)(F)F)OC(=O)N3)cn1` [Example 23, (S)-4-(cyclopropylethynyl)-4-(1,1-difluoroethyl)-6-fluoro-7-((4-(methoxymethyl)-6-oxopyrimidin-1(6H)-yl)methyl)-1,4-dihydro-2H-benzo[d][1,3]oxazin-2-one], the EC50 was found to be 16 nM.

For `CC(F)(F)[C@@]1(C#CC2CC2)OC(=O)Nc2cc(Cn3ccnc(N)c3=O)c(Cl)cc21` [Example 25, (S)-7-((3-amino-2-oxopyrazin-1(2H)-yl)methyl)-6-chloro-4-(cyclopropylethynyl)-4-(1,1-difluoroethyl)-1,4-dihydro-2H-benzo[d][1,3]oxazin-2-one], the concentration for a half-maximal effect (EC50) was found to be 37 nM.

Consider `CC(F)(F)[C@@]1(C#CC2CC2)OC(=O)Nc2cc(Cc3ccnc(N)c3C#N)c(Cl)cc21` [Example 34, (S)-2-amino-4-((6-chloro-4-(cyclopropylethynyl)-4-(1,1-difluoroethyl)-2-oxo-1,4-dihydro-2H-benzo[d][1,3]oxazin-7-yl)methyl)nicotinonitrile], for which the concentration giving a half-maximal response (EC50) was determined as 76 nM.

As for `CC(F)(F)[C@@]1(C#CC2CC2)OC(=O)Nc2cc(Cc3ccnc(N)n3)c(Cl)cc21` [Example 40, (S)-7-((2-aminopyrimidin-4-yl)methyl)-6-chloro-4-(cyclopropylethynyl)-4-(1,1-difluoroethyl)-1,4-dihydro-2H-benzo[d][1,3]oxazin-2-one], the EC50 came to 65 nM.

In the case of `COCc1cc(=O)n(Cc2cc3c(cc2Cl)[C@@](C#CC2CC2)(C(C)(F)F)OC(=O)N3)cn1` [Example 27, (S)-6-chloro-4-(cyclopropylethynyl)-4-(1,1-difluoroethyl)-7-((4-(methoxymethyl)-6-oxopyrimidin-1(6H)-yl)methyl)-1,4-dihydro-2H-benzo[d][1,3]oxazin-2-one], the EC50 is 16 nM.

Consider `Nc1nccc(Cc2cc3c(cc2Cl)[C@@](C#CC2CC2)(C(F)(F)F)OC(=O)N3)n1` [Example 38, (S)-7-((2-aminopyrimidin-4-yl)methyl)-6-chloro-4-(cyclopropylethynyl)-4-(trifluoromethyl)-1,4-dihydro-2H-benzo[d][1,3]oxazin-2-one], for which the EC50 was 149 nM.

With `COc1cc(=O)n(Cc2ccc3c(c2)NC(=O)O[C@]3(C#CC2CC2)C(C)(F)F)cn1` [Example 11, (S)-4-(cyclopropylethynyl)-4-(1,1-difluoroethyl)-7-((4-methoxy-6-oxopyrimidin-1(6H)-yl)methyl)-1,4-dihydro-2H-benzo[d][1,3]oxazin-2-one], the EC50 worked out at 47 nM.

Regarding `O=C1Nc2cc(Cn3cccn3)c(F)cc2[C@@](C#CC2CC2)(C(F)(F)F)O1` (single isomer, unassigned) [Example 29A], the EC50 is 428 nM.

With `NS(=O)(=O)c1ccc(Cc2ccc3c(c2)NC(=O)O[C@]3(C#CC2CC2)C(F)(F)F)cc1` (single isomer, unassigned) [Example 30A], the concentration giving a half-maximal response (EC50) was 755 nM.

Turning to `Cc1cc(=O)n(Cc2ccc3c(c2)NC(=O)O[C@]3(C#CC2CC2)C(C)(F)F)cn1` [Example 10, (S)-4-(cyclopropylethynyl)-4-(1,1-difluoroethyl)-7-((4-methyl-6-oxopyrimidin-1(6H)-yl)methyl)-1,4-dihydro-2H-benzo[d][1,3]oxazin-2-one], the EC50 stood at 66 nM.

For `COc1cc(=O)n(Cc2cc3c(cc2Cl)[C@@](C#CC2CC2)(C(C)(F)F)OC(=O)N3)cn1` [Example 13, (S)-6-chloro-4-(cyclopropylethynyl)-4-(1,1-difluoroethyl)-7-((4-methoxy-6-oxopyrimidin-1(6H)-yl)methyl)-1,4-dihydro-2H-benzo[d][1,3]oxazin-2-one], the EC50 turned out to be 11 nM.

For `Cc1cc(=O)n(Cc2cc3c(cc2Cl)[C@@](C#CC2CC2)(C(F)(F)F)OC(=O)N3)cn1` [Example 17, (S)-6-chloro-4-(cyclopropylethynyl)-7-((4-methyl-6-oxopyrimidin-1(6H)-yl)methyl)-4-(trifluoromethyl)-1,4-dihydro-2H-benzo[d][1,3]oxazin-2-one], the EC50 was 92 nM.

Take `COc1cc(=O)n(Cc2cc3c(cc2F)[C@@](C#CC2CC2)(C(F)(F)F)OC(=O)N3)cn1` (single isomer, unassigned) [Example 4A]: the EC50 was found to be 25 nM.

As for `CC(F)(F)[C@@]1(C#CC2CC2)OC(=O)Nc2cc(Cc3ccnc(N)c3C#N)ccc21` [Example 35, (S)-2-amino-4-((4-(cyclopropylethynyl)-4-(1,1-difluoroethyl)-2-oxo-1,4-dihydro-2H-benzo[d][1,3]oxazin-7-yl)methyl)nicotinonitrile], the EC50 came out at 20 nM.
